pIC50: −log10 of the molar value. Entries after “also recorded” stand apart in the source; their conditions may differ. Like-named read-outs stand apart in the source and are kept apart here.
Columns and labels:
Type in all cases: cell-based
Jurkat cells = assay: Jurkat cell viability (ATPlite); conditions: 24 h
Procedure: FIG. 4A: Jurkat T cells were treated by anti-cd3/anti-cd28/anti-mouse IgG (6 μg/mL) or PMA/Ion (10 ng/mL) for 24 h, IL-2 production in medium was measured by ELISA kit. FIG. 4B-E: Jurkat T cells were pretreated by IKK inhibitor (B), PKC inhibitor (C), CID-2858522 (D) for 2 h and then treated by anti-cd3/anti-cd28/anti-mouse IgG (6 μg/mL) or PMA/Ion (10 ng/mL) for 24 h, IL-2 production in medium was measured by ELISA kit; E, Jurkat cells were treated by CID-2858522, PKC inhibitor and IKK inhibitor for 24 h, cell viability was measured by ATPlite kit.
Cell viability assay. Cell viability was estimated based on cellular ATP levels, measured using ATPlite kit (Perkin Elmer). Cells at a density of 10^5/mL were seeded at 90 μL per well in 96-well white plates and cultured overnight. Compounds were added (5 μL in medium) to wells and cells were cultured for […], Finally, 50 μL ATPlite solution was added to each well and luminescence activity was read using a luminometer (LJL Biosystems, Sunnyvale, Calif.).

[1] = system: anti-CD3/CD28-induced lymphocyte proliferation; assay: Lymphocyte proliferation assay (3H-Thymidine), anti-CD3/CD28-stimulated splenocytes; conditions: mouse splenocytes; for pIC50: 3H-Thymidine incorporation, read-out: IC50, lymphocyte proliferation, T-cells (anti-CD3/CD28)
Procedure: (A) Isolated mouse primary splenocytes were cultured with anti-CD3/anti-CD28 (0.3 μg/mL each) or anti-IgM (3 μg/mL) for 48 h, then 1 μCi 3H-Thymidine was added for 12 h and incorporation into DNA was measured, expressing data as fold increase above unstimulated cells (mean±SD; n=3). (B-D) Primary splenocytes were pretreated for 2 h with IKK inhibitor, BMS-335541 (B), PKC inhibitor, Bisindolylmaleimide I (C) or CID-2858522 (D), then stimulated with anti-CD3/anti-CD28 (0.3 μg/mL) or anti-IgM (3 μg/mL) for 48 h. 1 μCi 3H-Thymidine was added for 12 h and incorporation into DNA was measured, expressing data as percent inhibition relative to control cells treated with DMSO (mean±SD; n=3). […] Levels of TRAF1 and β-actin were assessed by immunoblotting, quantified by densitometry and TRAF1 results reported relative to control cells, after normalization for β-actin (mean±SD). […] Then nuclear extracts were prepared and p65-DNA-binding activity was measured (mean±SD; n=3).
Lymphocyte proliferation assay. Splenocytes were isolated from normal Balb/c mice and red blood cells were removed using a mouse erythrocyte lysis kit (R&D Systems, Minneapolis, Minn.). Splenocytes were suspended in RMPI-1640 medium supplemented with 10% FBS, 1% penicillin-streptomycin, and 1 mM L-glutamine. Cells were diluted into 2×10^6 cells/mL and 200 μL were seeded in round bottom 96-well plates and incubated at 37° C. in 5% CO2 and 95% relative humidity. Cells were pretreated with compounds or DMSO diluted in medium for 2 h, then treated with anti-CD3/anti-CD28 or anti-IgM antibodies for 48 h, prior to adding 1 μCi [^3H]-Thymidine for (MP Biomedical, Solon, Ohio) 12 h. Cells were transferred to fiberglass filters (Wallac, Turku, Finland) using a FilterMate Harvester (Perkin Elmer), dried, and [^3H]-incorporation into DNA was quantified by scintillation counting Betaplate Scint (Perkin Elmer) and a MicroBetaTrilux LCS and luminescence counter (Perkin Elmer).

[2] = system: CD40-induced NF-κB reporter gene activity; assay: NF-κB reporter in HEK293-NF-κB-luc cells over-expressing CD40; conditions: CID-2858522 4 μM, IKK inhibitor 10 μM, PKC inhibitor 1 μM
Procedure: FIGS. 3 (A-F) HEK293-NF-κB-luc cells were pretreated with CID-2858522 (4 μM), IKK inhibitor, BMS-335541 (10 μM), or PKC inhibitor, Bisindolylmaleimide I (1 μM) for 2 hrs and then transfected with plasmids encoding CD4/TLR4 (A), CD40 (B), NOD1 (C), NOD2 (D), cIAP2-MALT1 (E), or XIAP and TAB (F), or pcDNA as control (compounds were not removed). After 48 hrs, luciferase activity was measured expressing data as fold increase relative to unstimulated cells (mean±SD; n=3). (G-H) HEK293-NF-κB-luc cells were pretreated with CID-2858522 (4 μM), or IKK inhibitor, BMS-335541 (10 μM) for 2 hrs and then cultured with 2 μM doxorubicin (G) or 16 μM retinoic acid (H). After 48 hrs, luciferase activity was measured as above.
Counter Screening and Secondary Assays. To counter-screen for inhibitors of the TNF pathway, HEK293-NFκB-Luc cells were seeded at 10^5 cells per well in 90 μL medium in white 96-well plates (Greiner Bio-One) and cultured overnight, before adding compounds (5 μL in medium) to cells. After 2 h incubation, 5 μL TNF (200 ng/mL) (R&D Systems) was added (final concentration 10 ng/mL) and cells were incubated for 16 h. Luciferase activity was measured using Britelite kit (Perkin Elmer). To counter-screen for inhibitors of NF-κB induced by TLR4, CD40, NOD1, NOD2, cIAP2/MALT, or XIAP/TAB, the 293-NF-κB-luc cells cultured in 96 well plates as above were pretreated with compounds for 2 h and then transfected using Lipofectamine 2000 with various plasmids including pcDNA3 (“empty vector” control) or plasmids encoding CD4-TLR4, CD40, NOD1, NOD2, cIAP2/MALT, XIAP/TAB, using 0.2 μL of transfection reagent containing 100 ng DNA per well. Cells were cultured in medium containing CID-2858522 or other compounds and luciferase activity was measured 48 h later. […] Reactions were then initiated by addition of 50 μL 160 nM ATP (Sigma) in PBS and luciferase activity was measured 2 h later using a luminometer (LJL Biosystems, Sunnyvale, Calif.).

Structure (SMILES) | cytotoxicity to Jurkat cells (Jurkat cells) | pIC50 ([1]; Lymphocyte) | suppression of CD40-induced NF-κB reporter [2] | pIC50 [1] | effect on anti-CD3/CD28-induced lymphocyte proliferation [1]
Cc1ccc2nc(NCCN)c3ncc(C)n3c2c1 [BMS-345541, reference compound] | not due to cytotoxicity | ~5.40 | potently suppressed | – | –
CN(C)CCCn1cc(C2=C(c3c[nH]c4ccccc34)C(=O)NC2=O)c2ccccc21 [Bisindolylmaleimide I, reference compound] | not due to cytotoxicity | – | not by CID-2858522 or by the PKC inhibitor | 4.94 | –
Cc1cc2nc(NCCCO)n(CC(=O)c3cc(C(C)(C)C)c(O)c(C(C)(C)C)c3)c2cc1C [Compound 1, 2-(2-(3-Hydroxypropylamino)-5,6-dimethyl-1H-benzo[d]imidazol-1-yl)-1-(3,5-di-tert-butyl-4-hydroxyphenyl)ethanone] | not due to cytotoxicity | – | did not inhibit; also recorded: not by CID-2858522 | – | minimal effect
